Assay results published in ChEMBL document CHEMBL1201862, “PubChem BioAssay data set” (2004).
The source made the active and inactive calls.

Legend:
Type in all cases: functional
[1] = molecular target: Mitogen-activated protein kinase 8 (Homo sapiens, UniProt P45983);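 further: value comes from one member of a kinome-wide kinase profiling panel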
Aurora kinase A = Aurora kinase A (Homo sapiens, UniProt O14965);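 further: value from the Navigating the Kinome kinase panel profiling, panel entry STK6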
[2] = molecular target: Dual specificity tyrosine-phosphorylation-regulated kinase 1B (Homo sapiens, UniProt Q9Y463); experiment: Navigating the Kinome. Panel member name: DYRK1B
[3] = molecular target: Serine/threonine-protein kinase TAO1 (Homo sapiens, UniProt Q7L7X3)
[4] = molecular target: Tyrosine-protein kinase JAK2 (Homo sapiens, UniProt O60674);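 further: JAK2 tested as one member of a kinase panel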
[5] = molecular target: Mitogen-activated protein kinase kinase kinase kinase 4 (Homo sapiens, UniProt O95819)
[6] = molecular target: Cyclin-dependent kinase 8 (Homo sapiens, UniProt P49336); experiment: Navigating the Kinome. Panel member name: CDK8
[7] = molecular target: Serine/threonine-protein kinase TBK1 (Homo sapiens, UniProt Q9UHD2); experiment: Navigating the Kinome. Panel member name: TBK1
[8] = molecular target: cAMP-dependent protein kinase catalytic subunit alpha (Homo sapiens, UniProt P17612)
[9] = molecular target: Platelet-derived growth factor receptor alpha (Homo sapiens, UniProt P16234); experiment: Navigating the Kinome. Panel member name: PDGFRA
[10] = molecular target: Serine/threonine-protein kinase pim-1 (Homo sapiens, UniProt P11309)
[11] = molecular target: Tyrosine-protein kinase receptor TYRO3 (Homo sapiens, UniProt Q06418);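 further: TYRO3 value obtained as one member of a kinome-wide profiling panel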
[12] = molecular target: Inhibitor of nuclear factor kappa-B kinase subunit epsilon (Homo sapiens, UniProt Q14164); experiment: Navigating the Kinome. Panel member name: IKBKE
[13] = molecular target: Hepatocyte growth factor receptor (Homo sapiens, UniProt P08581);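 further: kinase panel profiling across the kinome, with MET as the panel member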
[14] = molecular target: Glycogen synthase kinase-3 beta (Homo sapiens, UniProt P49841);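 further: value comes from a broad kinome profiling panel, with GSK3B as the panel member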
[15] = molecular target: cAMP-dependent protein kinase catalytic subunit PRKX (Homo sapiens, UniProt P51817)
[16] = molecular target: Rho-associated protein kinase 1 (Homo sapiens, UniProt Q13464);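 further: measured within a broad kinome-wide panel profiling many kinases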
Activin receptor type-1 = molecular target: T1, Activin receptor type-1 (Homo sapiens, UniProt Q04771); experiment: Navigating the Kinome. Panel member name: ACVR1
T1 sequence (Q04771 whole entry): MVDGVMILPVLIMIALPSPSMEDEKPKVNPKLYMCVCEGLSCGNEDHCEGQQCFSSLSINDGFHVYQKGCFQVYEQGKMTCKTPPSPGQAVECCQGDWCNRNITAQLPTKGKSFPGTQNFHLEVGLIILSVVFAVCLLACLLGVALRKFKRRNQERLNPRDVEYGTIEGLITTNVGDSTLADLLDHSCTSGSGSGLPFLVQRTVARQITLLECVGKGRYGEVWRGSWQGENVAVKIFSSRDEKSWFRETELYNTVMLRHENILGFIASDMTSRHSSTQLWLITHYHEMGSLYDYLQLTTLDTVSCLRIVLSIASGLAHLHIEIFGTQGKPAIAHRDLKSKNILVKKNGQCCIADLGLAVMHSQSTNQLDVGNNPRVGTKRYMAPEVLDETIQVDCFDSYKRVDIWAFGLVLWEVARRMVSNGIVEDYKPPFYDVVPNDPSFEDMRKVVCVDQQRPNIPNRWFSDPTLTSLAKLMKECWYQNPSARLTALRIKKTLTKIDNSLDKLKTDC

[17] = molecular target: ALK tyrosine kinase receptor (Homo sapiens, UniProt Q9UM73);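 further: ALK tested as one member of a kinase panel screen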
[18] = molecular target: Cyclin-dependent kinase 7 (Homo sapiens, UniProt P50613);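 further: value comes from a kinome-wide kinase profiling panel in which CDK7 is one member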
[19] = molecular target: Calcium/calmodulin-dependent protein kinase type II subunit alpha (Homo sapiens, UniProt Q9UQM7); experiment: Navigating the Kinome. Panel member name: CAMK2A
[20] = molecular target: Mast/stem cell growth factor receptor Kit (Homo sapiens, UniProt P10721);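 further: KIT entry within a kinase panel assay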
[21] = molecular target: Dual specificity tyrosine-phosphorylation-regulated kinase 1A (Homo sapiens, UniProt Q13627);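 further: measured against DYRK1A as one member of a broad kinome profiling panel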
[22] = molecular target: Casein kinase I isoform alpha (Homo sapiens, UniProt P48729)
[23] = molecular target: Dual specificity mitogen-activated protein kinase kinase 1 (Homo sapiens, UniProt Q02750); experiment: Navigating the Kinome. Panel member name: MAP2K1
[24] = molecular target: Proto-oncogene tyrosine-protein kinase receptor Ret (Homo sapiens, UniProt P07949);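 further: measured within a kinome-wide profiling panel, RET as the panel member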
[25] = molecular target: Leukocyte tyrosine kinase receptor (Homo sapiens, UniProt P29376); experiment: Navigating the Kinome. Panel member name: LTK
[26] = molecular target: Serine/threonine-protein kinase PAK 4 (Homo sapiens, UniProt O96013);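 further: value obtained within a kinome profiling panel in which PAK4 was one of the panel members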
[27] = molecular target: Insulin-like growth factor 1 receptor (Homo sapiens, UniProt P08069); experiment: Navigating the Kinome. Panel member name: IGF1R
[28] = molecular target: 5'-AMP-activated protein kinase catalytic subunit alpha-1 (Homo sapiens, UniProt Q13131)
[29] = molecular target: Dual specificity protein kinase CLK2 (Homo sapiens, UniProt P49760)
[30] = molecular target: Macrophage colony-stimulating factor 1 receptor (Homo sapiens, UniProt P07333);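 further: value comes from the Navigating the Kinome screening panel, CSF1R member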
[31] = molecular target: Protein kinase C theta type (Homo sapiens, UniProt Q04759); experiment: Navigating the Kinome. Panel member name: PRKCQ
[32] = molecular target: Leucine-rich repeat serine/threonine-protein kinase 2 (Homo sapiens, UniProt Q5S007);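 further: value from a broad kinome-wide panel profiling study in which LRRK2 was one of the kinases tested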
[33] = molecular target: Tyrosine-protein kinase Lck (Homo sapiens, UniProt P06239);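 further: lck was assayed as one member of a kinase panel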
Focal adhesion kinase 1 = Focal adhesion kinase 1 (Homo sapiens, UniProt Q05397);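 further: measured as one member of a kinome panel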
[34] = molecular target: Tyrosine-protein kinase Fyn (Homo sapiens, UniProt P06241)
[35] = molecular target: MAP/microtubule affinity-regulating kinase 3 (Homo sapiens, UniProt P27448);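 further: MARK3 affinity measured as one member of a kinome panel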
Activated CDC42 kinase 1 = Activated CDC42 kinase 1 (Homo sapiens, UniProt Q07912); experiment: Navigating the Kinome. Panel member name: ACK1
[36] = molecular target: Mitogen-activated protein kinase 10 (Homo sapiens, UniProt P53779); experiment: Navigating the Kinome. Panel member name: MAPK10

Chain of Serine/threonine-protein kinase PAK 4 (O96013 whole entry): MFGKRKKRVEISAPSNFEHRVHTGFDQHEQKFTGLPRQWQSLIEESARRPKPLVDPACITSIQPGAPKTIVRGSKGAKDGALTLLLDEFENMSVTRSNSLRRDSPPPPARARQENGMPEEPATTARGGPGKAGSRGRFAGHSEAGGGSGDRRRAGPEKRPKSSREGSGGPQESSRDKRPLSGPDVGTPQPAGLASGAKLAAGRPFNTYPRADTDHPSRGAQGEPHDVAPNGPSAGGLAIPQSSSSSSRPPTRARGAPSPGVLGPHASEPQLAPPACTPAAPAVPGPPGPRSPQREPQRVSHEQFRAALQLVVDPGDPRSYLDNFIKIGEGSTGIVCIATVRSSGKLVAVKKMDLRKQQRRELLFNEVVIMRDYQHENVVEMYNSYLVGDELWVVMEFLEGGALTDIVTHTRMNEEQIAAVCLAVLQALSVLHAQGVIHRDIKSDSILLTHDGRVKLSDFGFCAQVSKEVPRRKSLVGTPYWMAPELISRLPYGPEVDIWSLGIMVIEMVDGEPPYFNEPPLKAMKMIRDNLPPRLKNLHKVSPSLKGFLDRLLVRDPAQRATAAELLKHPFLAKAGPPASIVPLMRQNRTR
Chain of Serine/threonine-protein kinase TBK1 (Q9UHD2 whole entry): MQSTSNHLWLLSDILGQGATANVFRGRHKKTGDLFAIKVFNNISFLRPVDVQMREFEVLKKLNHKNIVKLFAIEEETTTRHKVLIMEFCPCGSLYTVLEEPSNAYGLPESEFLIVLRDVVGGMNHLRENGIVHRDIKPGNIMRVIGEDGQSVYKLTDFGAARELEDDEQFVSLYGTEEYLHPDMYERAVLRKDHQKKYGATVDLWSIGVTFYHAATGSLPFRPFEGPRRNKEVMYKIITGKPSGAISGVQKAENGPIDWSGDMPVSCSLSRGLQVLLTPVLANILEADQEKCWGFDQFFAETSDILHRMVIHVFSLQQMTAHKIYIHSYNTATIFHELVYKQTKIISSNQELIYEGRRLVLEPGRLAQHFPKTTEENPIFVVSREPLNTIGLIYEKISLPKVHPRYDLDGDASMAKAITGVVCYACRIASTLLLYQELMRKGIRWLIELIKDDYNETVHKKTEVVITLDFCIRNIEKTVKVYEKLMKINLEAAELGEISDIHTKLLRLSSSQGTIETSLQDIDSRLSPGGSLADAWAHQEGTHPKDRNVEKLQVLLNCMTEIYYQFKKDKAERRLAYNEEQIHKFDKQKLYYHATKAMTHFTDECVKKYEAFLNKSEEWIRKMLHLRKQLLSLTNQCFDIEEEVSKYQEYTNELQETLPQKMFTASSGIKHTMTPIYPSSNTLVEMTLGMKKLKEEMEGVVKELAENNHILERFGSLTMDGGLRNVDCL
Chain of Protein kinase C theta type (Q04759 whole entry): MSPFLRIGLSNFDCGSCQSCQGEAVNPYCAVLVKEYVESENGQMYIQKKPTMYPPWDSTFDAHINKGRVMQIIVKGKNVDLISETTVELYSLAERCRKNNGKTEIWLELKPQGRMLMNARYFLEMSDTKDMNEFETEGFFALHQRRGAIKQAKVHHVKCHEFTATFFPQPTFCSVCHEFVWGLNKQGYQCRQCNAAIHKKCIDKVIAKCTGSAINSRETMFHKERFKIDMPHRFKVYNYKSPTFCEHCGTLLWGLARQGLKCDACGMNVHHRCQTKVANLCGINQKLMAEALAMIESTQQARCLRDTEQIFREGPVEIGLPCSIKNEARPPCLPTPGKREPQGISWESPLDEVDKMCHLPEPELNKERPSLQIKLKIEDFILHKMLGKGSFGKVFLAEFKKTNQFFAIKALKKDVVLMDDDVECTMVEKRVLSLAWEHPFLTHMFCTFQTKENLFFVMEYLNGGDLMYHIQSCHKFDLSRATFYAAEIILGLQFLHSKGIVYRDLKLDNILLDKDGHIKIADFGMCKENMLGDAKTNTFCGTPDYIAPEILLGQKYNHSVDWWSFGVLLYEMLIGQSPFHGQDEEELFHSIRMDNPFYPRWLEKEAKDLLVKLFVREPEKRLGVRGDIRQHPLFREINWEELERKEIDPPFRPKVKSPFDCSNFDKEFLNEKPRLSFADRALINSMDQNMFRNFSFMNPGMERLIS
Chain of Activated CDC42 kinase 1 (Q07912 whole entry): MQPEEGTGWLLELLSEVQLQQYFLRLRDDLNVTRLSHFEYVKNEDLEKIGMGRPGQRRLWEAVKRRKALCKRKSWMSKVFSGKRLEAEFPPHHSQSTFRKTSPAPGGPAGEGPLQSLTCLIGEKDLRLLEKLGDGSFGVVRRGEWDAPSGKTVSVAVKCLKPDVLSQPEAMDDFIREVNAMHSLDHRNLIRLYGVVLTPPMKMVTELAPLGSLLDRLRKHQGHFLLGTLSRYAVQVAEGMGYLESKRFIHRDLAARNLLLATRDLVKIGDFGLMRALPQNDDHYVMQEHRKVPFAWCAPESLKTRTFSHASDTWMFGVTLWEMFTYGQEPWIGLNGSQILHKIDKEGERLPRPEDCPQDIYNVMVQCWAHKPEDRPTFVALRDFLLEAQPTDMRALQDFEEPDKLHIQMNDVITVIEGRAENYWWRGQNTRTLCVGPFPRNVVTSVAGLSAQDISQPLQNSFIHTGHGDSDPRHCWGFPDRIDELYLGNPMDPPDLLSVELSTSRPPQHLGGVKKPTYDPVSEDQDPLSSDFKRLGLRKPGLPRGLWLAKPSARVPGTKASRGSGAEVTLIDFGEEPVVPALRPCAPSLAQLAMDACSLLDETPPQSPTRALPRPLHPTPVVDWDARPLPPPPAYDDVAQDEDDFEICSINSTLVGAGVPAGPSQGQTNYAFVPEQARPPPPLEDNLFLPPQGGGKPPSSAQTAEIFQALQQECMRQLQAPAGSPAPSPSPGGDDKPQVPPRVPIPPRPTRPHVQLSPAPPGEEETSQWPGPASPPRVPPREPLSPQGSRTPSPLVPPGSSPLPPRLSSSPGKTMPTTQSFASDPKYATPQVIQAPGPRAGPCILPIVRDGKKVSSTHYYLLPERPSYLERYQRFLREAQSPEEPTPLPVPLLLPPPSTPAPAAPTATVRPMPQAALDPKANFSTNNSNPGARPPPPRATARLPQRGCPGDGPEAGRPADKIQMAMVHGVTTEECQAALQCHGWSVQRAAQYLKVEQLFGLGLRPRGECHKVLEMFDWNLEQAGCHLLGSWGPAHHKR
Chain of Dual specificity mitogen-activated protein kinase kinase 1 (Q02750 whole entry): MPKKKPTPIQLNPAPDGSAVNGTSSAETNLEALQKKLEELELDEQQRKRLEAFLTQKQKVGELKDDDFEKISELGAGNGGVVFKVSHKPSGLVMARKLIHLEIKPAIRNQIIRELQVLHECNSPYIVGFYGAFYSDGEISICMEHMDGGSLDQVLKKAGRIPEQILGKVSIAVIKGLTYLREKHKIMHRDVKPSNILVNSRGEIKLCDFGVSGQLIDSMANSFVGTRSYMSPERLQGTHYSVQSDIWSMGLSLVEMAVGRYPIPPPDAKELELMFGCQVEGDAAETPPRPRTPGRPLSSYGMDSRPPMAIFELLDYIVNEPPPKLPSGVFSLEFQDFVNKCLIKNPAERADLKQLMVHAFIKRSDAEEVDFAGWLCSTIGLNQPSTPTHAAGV
Chain of Dual specificity protein kinase CLK2 (P49760 whole entry): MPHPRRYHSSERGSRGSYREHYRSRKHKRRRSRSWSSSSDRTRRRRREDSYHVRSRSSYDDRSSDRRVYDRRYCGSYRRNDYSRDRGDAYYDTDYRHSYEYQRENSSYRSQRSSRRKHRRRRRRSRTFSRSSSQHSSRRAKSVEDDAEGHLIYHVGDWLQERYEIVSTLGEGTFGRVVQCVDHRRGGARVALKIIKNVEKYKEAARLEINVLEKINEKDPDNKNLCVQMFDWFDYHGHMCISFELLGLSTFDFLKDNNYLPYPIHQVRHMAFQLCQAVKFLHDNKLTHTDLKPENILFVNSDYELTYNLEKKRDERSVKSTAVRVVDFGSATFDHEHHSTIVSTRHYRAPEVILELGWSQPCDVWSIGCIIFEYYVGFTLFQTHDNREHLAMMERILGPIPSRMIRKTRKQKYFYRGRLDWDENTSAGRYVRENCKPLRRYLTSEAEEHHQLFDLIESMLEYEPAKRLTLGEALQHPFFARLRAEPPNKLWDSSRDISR
Chain of Tyrosine-protein kinase receptor TYRO3 (Q06418 whole entry): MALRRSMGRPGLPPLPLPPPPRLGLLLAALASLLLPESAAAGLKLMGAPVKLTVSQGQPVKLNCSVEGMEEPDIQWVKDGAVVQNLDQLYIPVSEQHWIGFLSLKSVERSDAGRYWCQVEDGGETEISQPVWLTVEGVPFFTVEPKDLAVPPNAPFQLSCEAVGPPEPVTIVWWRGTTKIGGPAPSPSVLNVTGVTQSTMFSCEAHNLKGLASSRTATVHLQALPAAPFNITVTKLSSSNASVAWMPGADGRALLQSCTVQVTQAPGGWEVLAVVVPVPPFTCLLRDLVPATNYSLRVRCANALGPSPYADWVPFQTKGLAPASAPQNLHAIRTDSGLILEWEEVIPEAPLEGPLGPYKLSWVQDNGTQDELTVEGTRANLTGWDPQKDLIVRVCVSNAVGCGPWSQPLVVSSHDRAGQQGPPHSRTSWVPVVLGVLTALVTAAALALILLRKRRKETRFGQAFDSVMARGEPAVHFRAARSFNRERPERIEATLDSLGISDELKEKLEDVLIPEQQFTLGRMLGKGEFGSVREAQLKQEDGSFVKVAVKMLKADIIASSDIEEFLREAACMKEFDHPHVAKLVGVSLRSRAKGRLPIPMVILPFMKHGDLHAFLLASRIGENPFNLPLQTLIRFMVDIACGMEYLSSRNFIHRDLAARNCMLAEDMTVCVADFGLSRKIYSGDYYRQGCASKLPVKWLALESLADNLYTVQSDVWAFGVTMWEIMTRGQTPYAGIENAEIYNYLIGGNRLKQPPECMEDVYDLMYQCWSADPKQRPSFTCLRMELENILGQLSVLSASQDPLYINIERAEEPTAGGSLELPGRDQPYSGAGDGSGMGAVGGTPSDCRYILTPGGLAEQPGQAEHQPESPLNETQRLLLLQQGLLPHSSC

NC(=O)c1ccc(-c2nc(-c3ccc4c(c3)OCO4)c(-c3ccccn3)[nH]2)cc1 [SB-431542]
Ki [1]: > 5.01 µM (inactive)
Ki (Aurora kinase A): > 1.58 µM (inactive)
Ki [2]: > 2.51 µM (inactive)
Ki [3]: > 2.51 µM (inactive)
Ki [4]: > 2.51 µM (inactive)
Ki [5]: > 5.01 µM (inactive)
Ki [6]: > 3.98 µM (inactive)
Ki [7]: > 3.16 µM (inactive)
Ki [8]: > 1.26 µM (inactive)
Ki [9]: > 2.51 µM (inactive)
Ki [10]: > 6.31 µM (inactive)
Ki [11]: > 3.16 µM (inactive)
Ki [12]: > 3.16 µM (inactive)
Ki [13]: > 2.51 µM (inactive)
Ki [14]: > 3.98 µM (inactive)
Ki [15]: > 3.16 µM (inactive)
Ki [16]: > 3.98 µM (inactive)
Ki (Activin receptor type-1): > 3.98 µM (inactive)
Ki [17]: > 6.31 µM (inactive)
Ki [18]: > 3.98 µM (inactive)
Ki [19]: > 7.94 µM (inactive)
Ki [20]: > 6.31 µM (inactive)
Ki [21]: > 2 µM (inactive)
Ki [22]: 0.1 µM (active)
Ki [23]: > 3.16 µM (inactive)
Ki [24]: > 3.16 µM (inactive)
Ki [25]: > 2.51 µM (inactive)
Ki [26]: > 5.01 µM (inactive)
Ki [27]: > 2.51 µM (inactive)
Ki [28]: > 3.16 µM (inactive)
Ki [29]: > 3.98 µM (inactive)
Ki [30]: > 2.51 µM (inactive)
Ki [31]: > 2.51 µM (inactive)
Ki [32]: > 2.51 µM (inactive)
Ki [33]: > 6.31 µM (inactive)
Ki (Focal adhesion kinase 1): > 6.31 µM (inactive)
Ki [34]: > 6.31 µM (inactive)
Ki [35]: > 5.01 µM (inactive)
Ki (Activated CDC42 kinase 1): > 3.98 µM (inactive)
Ki [36]: > 3.16 µM (inactive)
